Usually Ki stands for the dissociation constant of the complex between target and ligand, obtained from inhibition or displacement. A higher Ki goes with weaker binding. As usually defined, the ED50 is the dose that gives a 50% effect, or the effect in half of the subjects. A high value points to a need for a large dose.

Assay [1] deals with 5-hydroxytryptamine receptor 2A (Rattus norvegicus, UniProt P14842). Description: […] measured for 5-hydroxytryptamine 2A receptor using [3H]-MDL- 100,907 as radioligand in rat cortical homogenates. It is filed as tissue-based.
For assay [2], the target named is T1, 5-hydroxytryptamine receptor 2C (Homo sapiens, UniProt P28335).
T1 sequence (P28335 whole entry): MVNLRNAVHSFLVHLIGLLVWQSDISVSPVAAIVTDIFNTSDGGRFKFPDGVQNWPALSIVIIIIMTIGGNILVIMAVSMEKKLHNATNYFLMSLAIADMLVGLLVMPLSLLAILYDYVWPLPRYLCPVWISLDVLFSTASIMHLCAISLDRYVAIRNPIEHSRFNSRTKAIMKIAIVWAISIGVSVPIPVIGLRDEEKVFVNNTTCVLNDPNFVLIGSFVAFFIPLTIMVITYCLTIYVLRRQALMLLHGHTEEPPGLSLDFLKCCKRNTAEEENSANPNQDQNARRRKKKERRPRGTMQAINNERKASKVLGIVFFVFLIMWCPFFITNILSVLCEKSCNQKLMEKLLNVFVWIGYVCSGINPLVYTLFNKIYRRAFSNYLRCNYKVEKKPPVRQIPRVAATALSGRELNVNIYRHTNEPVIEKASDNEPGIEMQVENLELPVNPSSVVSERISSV
Description: Binding activity against cloned human 5-hydroxytryptamine 2C receptor using [125I]DOI as the radioligand.

For assay [3], the species on record is Rattus norvegicus. The experiment in a line: Drug discrimination studies in rats(12) expressed as ED50 value. It is filed as functional.
For assay [4], the target named is 5-hydroxytryptamine receptor 2B (Homo sapiens, UniProt P41595). The experiment in a line: Binding activity against cloned human 5-hydroxytryptamine 2B receptor using [3H]5-HT as the radioligand.
The species named for assay [5] is Rattus norvegicus. The experiment in a line: Drug discrimination studies in rats(7-15) expressed as ED50 value. Format: functional.
For assay [6], the species on record is Rattus norvegicus. The experiment in a line: Drug discrimination studies in rats(16-19) expressed as ED50 value. It is filed as functional.
The species entered for assay [7] is Rattus norvegicus. The experiment in a line: Drug discrimination studies in rats(9-12) expressed as ED50 value. It is filed as functional.
For assay [8], the target named is 5-hydroxytryptamine receptor 2A (Homo sapiens, UniProt P28223). Description: Binding activity against cloned human 5-hydroxytryptamine 2A receptor using [125I]DOI as the radioligand.
Assay [9] is filed under the species Rattus norvegicus. Description: Drug discrimination studies in rats(22) expressed as ED50 values. It is filed as functional.

Chain of 5-hydroxytryptamine receptor 2A (Rattus norvegicus, UniProt P14842) (P14842 whole entry): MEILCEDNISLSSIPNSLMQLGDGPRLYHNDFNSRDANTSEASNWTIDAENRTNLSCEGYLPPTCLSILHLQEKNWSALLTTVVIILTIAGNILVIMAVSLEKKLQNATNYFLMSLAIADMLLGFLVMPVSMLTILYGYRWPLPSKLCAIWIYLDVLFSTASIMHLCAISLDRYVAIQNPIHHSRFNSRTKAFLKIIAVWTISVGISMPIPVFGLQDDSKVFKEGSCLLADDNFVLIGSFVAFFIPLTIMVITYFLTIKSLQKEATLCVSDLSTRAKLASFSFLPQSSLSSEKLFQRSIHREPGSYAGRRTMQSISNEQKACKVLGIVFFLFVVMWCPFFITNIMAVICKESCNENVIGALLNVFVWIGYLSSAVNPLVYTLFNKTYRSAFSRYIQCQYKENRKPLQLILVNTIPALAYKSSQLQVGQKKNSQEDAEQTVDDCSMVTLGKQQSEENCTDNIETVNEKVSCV
Chain of 5-hydroxytryptamine receptor 2B (P41595 whole entry): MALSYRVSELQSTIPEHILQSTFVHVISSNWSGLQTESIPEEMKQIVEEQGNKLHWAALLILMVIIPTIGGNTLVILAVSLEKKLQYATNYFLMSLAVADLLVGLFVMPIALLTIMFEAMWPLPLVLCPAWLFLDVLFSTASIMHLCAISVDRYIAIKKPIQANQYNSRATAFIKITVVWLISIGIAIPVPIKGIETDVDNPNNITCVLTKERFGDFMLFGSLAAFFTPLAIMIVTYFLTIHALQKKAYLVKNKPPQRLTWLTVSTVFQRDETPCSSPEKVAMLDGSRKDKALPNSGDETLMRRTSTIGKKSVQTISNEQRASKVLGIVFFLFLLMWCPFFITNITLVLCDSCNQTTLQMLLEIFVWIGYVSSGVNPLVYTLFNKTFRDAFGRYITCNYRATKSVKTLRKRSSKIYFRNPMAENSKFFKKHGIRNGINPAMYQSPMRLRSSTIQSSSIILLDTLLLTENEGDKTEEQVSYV
Chain of 5-hydroxytryptamine receptor 2A (Homo sapiens, UniProt P28223) (P28223 whole entry): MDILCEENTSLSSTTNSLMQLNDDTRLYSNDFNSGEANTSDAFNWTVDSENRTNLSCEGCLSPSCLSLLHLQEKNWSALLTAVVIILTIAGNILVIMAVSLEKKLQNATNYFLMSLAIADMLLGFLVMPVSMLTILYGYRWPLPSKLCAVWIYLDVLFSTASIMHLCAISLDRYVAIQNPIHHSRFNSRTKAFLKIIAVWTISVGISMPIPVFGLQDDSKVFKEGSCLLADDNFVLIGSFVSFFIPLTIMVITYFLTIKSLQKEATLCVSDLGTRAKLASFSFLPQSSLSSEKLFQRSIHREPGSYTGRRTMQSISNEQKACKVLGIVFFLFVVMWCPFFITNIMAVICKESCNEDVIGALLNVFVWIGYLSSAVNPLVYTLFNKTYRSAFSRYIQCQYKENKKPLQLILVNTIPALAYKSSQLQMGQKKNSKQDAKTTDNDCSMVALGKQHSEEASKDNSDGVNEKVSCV

In assay [1], `CC(N)Cc1c2c(c(Br)c3c1OCC3)OCC2` (configuration not stated) showed a Ki of 14.8 nM.

Consider `CC(N)Cc1c2ccoc2c(Br)c2ccoc12` (configuration not stated), for which the Ki in [1] was found to be 0.23 nM.

`COc1cc(CC(C)N)c(OC)cc1I` (configuration not stated): the Ki in assay [2] worked out at 1.82 nM; in assay [4] it was 42.7 nM. The ED50 in the assay listed under Rattus norvegicus [3] came out at 0.3 µmol/kg.

In the case of `CC(N)Cc1c2c(c(Br)c3c1OCC3)OCC2` (racemic), the 50% effect level in the assay listed under Rattus norvegicus [5] (ED50) was put at a dose of 0.061 µmol/kg.

As for `CC(N)Cc1c2ccoc2c(Br)c2ccoc12` (racemic), the Ki in assay [2] worked out at 0.02 nM; in [4], 0.19 nM; in assay [8], 0.04 nM. Further, the results for the ED50 in the assay filed under Rattus norvegicus [6] and in the assay filed under Rattus norvegicus [7] were 0.022 µmol/kg and 0.039 µmol/kg, respectively.

The compound `CCN(CC)C(=O)[C@@H]1C=C2c3cccc4[nH]cc(c34)C[C@H]2N(C)C1` [LYSERGIDE] returned an ED50 in the assay filed under Rattus norvegicus [9] of 0.04 µmol/kg.
